Assay results reported in patent US20250152585A1, “PHARMACEUTICAL COMPOUND” (Duke Street Bio Limited, priority 2022, published 2025).
Like-named read-outs stand apart in the source and are kept apart here.

Tests used:
[1] = biological target: T1, N-terminally FLAG-tagged PARP2 (amino acids 1-583) (Homo sapiens, UniProt Q9UGN5); test: PARP2 probe displacement HTRF assay; type: binding; conditions: binned Kd
T1 construct: N-terminally FLAG-tagged PARP2 (amino acids 1-583)
Experimental: Data analysis was performed identical as for PARP1.

[2] = biological target: T2, full length N-terminally FLAG-tagged PARP1 (Homo sapiens, UniProt P09874); test: PARP1 probe displacement HTRF assay; conditions: for Selectivity: PARP1 over PARP2, ratio Kd (PARP2)/Kd (PARP1); for Kd: binned Kd
T2 sequence (P09874 whole entry): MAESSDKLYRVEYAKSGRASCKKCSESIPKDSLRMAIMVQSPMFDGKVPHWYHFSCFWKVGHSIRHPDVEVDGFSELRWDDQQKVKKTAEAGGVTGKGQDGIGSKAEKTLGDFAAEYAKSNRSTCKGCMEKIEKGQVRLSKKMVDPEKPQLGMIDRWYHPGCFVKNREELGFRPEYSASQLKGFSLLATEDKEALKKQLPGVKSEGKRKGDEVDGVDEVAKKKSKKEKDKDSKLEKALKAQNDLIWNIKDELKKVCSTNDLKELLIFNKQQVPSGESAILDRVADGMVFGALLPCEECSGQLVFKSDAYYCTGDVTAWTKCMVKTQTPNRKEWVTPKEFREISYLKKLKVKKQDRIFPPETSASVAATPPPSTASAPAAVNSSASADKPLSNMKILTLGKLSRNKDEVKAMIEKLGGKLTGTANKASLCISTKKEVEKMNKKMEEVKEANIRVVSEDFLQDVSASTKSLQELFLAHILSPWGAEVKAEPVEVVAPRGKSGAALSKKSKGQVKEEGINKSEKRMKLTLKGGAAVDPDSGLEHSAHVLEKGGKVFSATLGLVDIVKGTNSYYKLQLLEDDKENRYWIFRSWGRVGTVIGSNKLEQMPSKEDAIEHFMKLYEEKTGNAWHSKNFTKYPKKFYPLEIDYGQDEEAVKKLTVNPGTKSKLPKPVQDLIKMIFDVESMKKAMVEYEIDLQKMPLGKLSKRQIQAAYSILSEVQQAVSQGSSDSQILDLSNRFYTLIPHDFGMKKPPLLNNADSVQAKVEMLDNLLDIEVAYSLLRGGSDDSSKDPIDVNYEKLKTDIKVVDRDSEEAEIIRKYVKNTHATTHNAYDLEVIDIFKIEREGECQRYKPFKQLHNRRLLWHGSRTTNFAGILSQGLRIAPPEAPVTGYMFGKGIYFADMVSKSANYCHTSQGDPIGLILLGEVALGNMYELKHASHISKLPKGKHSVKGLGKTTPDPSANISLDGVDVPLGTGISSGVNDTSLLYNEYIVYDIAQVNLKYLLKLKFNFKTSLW

[3] = biological target: T2, full length N-terminally FLAG-tagged PARP1; test: PARP1 biochemical DELFIA assay (auto-PARylation); design: recombinant full length human N-terminally FLAG-tagged PARP1
[4] = read-out: PARP1 HTRF, PARP1 probe displacement HTRF
[5] = binned IC50, PARP1 biochemical DELFIA assay
[6] = read-out: PARP1 HTRF, probe displacement HTRF
[7] = binned IC50, biochemical auto-PARylation assay

T1 sequence (Q9UGN5 whole entry, the tested form may be a part): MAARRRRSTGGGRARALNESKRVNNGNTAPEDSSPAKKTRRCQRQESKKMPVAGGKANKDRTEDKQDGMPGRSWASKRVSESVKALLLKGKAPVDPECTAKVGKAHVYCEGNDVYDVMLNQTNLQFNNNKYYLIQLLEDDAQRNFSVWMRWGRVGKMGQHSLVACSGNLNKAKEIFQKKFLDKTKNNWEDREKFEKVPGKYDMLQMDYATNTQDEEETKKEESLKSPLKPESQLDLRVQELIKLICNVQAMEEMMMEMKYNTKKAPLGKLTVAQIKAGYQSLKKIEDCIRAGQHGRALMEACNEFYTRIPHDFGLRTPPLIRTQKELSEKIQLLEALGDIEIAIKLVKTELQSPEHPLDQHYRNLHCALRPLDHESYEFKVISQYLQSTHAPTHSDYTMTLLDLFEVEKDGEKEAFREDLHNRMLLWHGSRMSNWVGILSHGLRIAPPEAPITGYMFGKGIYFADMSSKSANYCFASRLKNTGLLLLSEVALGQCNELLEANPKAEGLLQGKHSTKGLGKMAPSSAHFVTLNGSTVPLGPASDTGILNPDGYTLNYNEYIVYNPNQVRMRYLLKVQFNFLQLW

## CNC(=O)c1ccc(N2CCC(N3CCC(c4cc5ccccc5c(=O)[nH]4)C3)CC2)cn1 (single isomer, unassigned) [Compound 91b]
[1]; PARP2 probe displacement HTRF
  Kd: 0.1 to 1 µM
[2]; probe displacement HTRF
  Selectivity: +++ (+++ indicate a value of at least 100)
[2]; [4]
  Kd: < 0.01 µM
[3]; [5]
  IC50: < 0.01 µM

## NC(=O)c1ccc(N2CCC(N3CCC(c4nc5ccccc5c(=O)[nH]4)C3)CC2)cn1 (single isomer, unassigned) [Compound 123b]
[1]; PARP2 probe displacement HTRF
  Kd: 1 to 10 µM
[2]; probe displacement HTRF
  Selectivity: +++ (+++ indicate a value of at least 100)
[2]; [4]
  Kd: < 0.01 µM
[3]; [5]
  IC50: < 0.01 µM

## CCc1ccc(C2CCN(C3CCN(c4ccc(C#N)cc4Cl)CC3)C2)[nH]c1=O (single isomer, unassigned) [Compound 377b]
[1]; probe displacement HTRF
  Kd: 1 to 10 µM
[2]; probe displacement HTRF
  Selectivity: +++ (+++ indicate a value of at least 100)
[2]; [6]
  Kd: < 0.01 µM
[3]; [7]
  IC50: < 0.01 µM

## CNC(=O)c1ccc(N2CCC(N3CCC(c4cc5cccc(C(F)(F)F)c5c(=O)[nH]4)C3)CC2)cn1 (racemic) [Compound 135rac]
[1]; PARP2 probe displacement HTRF
  Kd: 0.01 to 0.1 µM
[2]; probe displacement HTRF
  Selectivity: + (+ indicates a value of 10 to less than 50)
[2]; [4]
  Kd: < 0.01 µM
[3]; [5]
  IC50: < 0.01 µM

## CNC(=O)c1ccc(N2CCC(N3CCC(c4cc5c(c(=O)[nH]4)CCC(=O)N5C)C3)CC2)cn1 (racemic) [Compound 325rac]
[1]; probe displacement HTRF
  Kd: 1 to 10 µM
[2]; probe displacement HTRF
  Selectivity: +++ (+++ indicate a value of at least 100)
[2]; [6]
  Kd: < 0.01 µM
[3]; [7]
  IC50: < 0.01 µM

## CNC(=O)c1ccc(N2CCC(N3CCC(c4cc5c(C(F)(F)F)nn(C)c5c(=O)[nH]4)C3)CC2)cn1 (racemic) [Compound 392rac]
[1]; probe displacement HTRF
  Kd: > 10 µM
[2]; probe displacement HTRF
  Selectivity: + (+ indicates a value of 10 to less than 50)
[2]; [6]
  Kd: 0.1 to 1 µM
[3]; [7]
  IC50: 0.1 to 1 µM

## CNC(=O)c1ccc(OCCN2CCCC(c3nc4ccccc4c(=O)[nH]3)C2)cn1 (single isomer, unassigned) [Compound 65b]
[1]; PARP2 probe displacement HTRF
  Kd: 1 to 10 µM
[2]; probe displacement HTRF
  Selectivity: + (+ indicates a value of 10 to less than 50)
[2]; [4]
  Kd: 0.1 to 1 µM
[3]; [5]
  IC50: 0.1 to 1 µM

## CNC(=O)c1ccc(N2CCC(N3CCC(c4nc5ccccc5c(=O)[nH]4)C3)CC2)nc1 (single isomer, unassigned) [Compound 46a]
[1]; PARP2 probe displacement HTRF
  Kd: 1 to 10 µM
[2]; probe displacement HTRF
  Selectivity: +++ (+++ indicate a value of at least 100)
[2]; [4]
  Kd: 0.01 to 0.1 µM
[3]; [5]
  IC50: < 0.01 µM

## CNC(=O)c1ncc(N2CCC(N3CCC(c4cc5ccc(F)cc5c(=O)[nH]4)C3)CC2)c(C)n1 (single isomer, unassigned) [Compound 265b]
[1]; probe displacement HTRF
  Kd: 0.1 to 1 µM
[2]; probe displacement HTRF
  Selectivity: +++ (+++ indicate a value of at least 100)
[2]; [6]
  Kd: < 0.01 µM
[3]; [7]
  IC50: < 0.01 µM

## CNC(=O)c1ccc(N2CCC(N3CCCC(c4ccc(OC)c(=O)[nH]4)C3)CC2)cn1 (single isomer, unassigned) [Compound 147a]
[1]; PARP2 probe displacement HTRF
  Kd: > 10 µM
[2]; probe displacement HTRF
  Selectivity: − (− indicates a value of less than 10)
[2]; [4]
  Kd: 1 to 10 µM
[3]; [5]
  IC50: 1 to 10 µM

## CNC(=O)c1ccc(N2CCC(N3CCC(c4nc5c(C)cn(C)c5c(=O)[nH]4)C3)CC2)cn1 (racemic) [Compound 163rac]
[1]; PARP2 probe displacement HTRF
  Kd: 0.1 to 1 µM
[2]; probe displacement HTRF
  Selectivity: +++ (+++ indicate a value of at least 100)
[2]; [4]
  Kd: < 0.01 µM
[3]; [5]
  IC50: < 0.01 µM

## CNC(=O)c1ccc(N2CCC(N3CCCC(c4nc5c(c(=O)[nH]4)CCCC5)C3)CC2)cn1 (single isomer, unassigned) [Compound 146b]
[1]; PARP2 probe displacement HTRF
  Kd: > 10 µM
[2]; probe displacement HTRF
  Selectivity: +++ (+++ indicate a value of at least 100)
[2]; [4]
  Kd: 0.01 to 0.1 µM
[3]; [5]
  IC50: 0.01 to 0.1 µM

## CNC(=O)c1ccc(N2CCC(N3CCC(c4nc5c(c(=O)[nH]4)CCCN5)C3)CC2)cn1 (single isomer, unassigned) [Compound 214a]
[1]; PARP2 probe displacement HTRF
  Kd: 0.1 to 1 µM
[2]; probe displacement HTRF
  Selectivity: ++ (++ indicates a value of 50 to less than 100)
[2]; [4]
  Kd: 0.01 to 0.1 µM
[3]; [5]
  IC50: 0.01 to 0.1 µM

## COCCNC(=O)c1ccc(N2CCC(N3CCCC(c4nc5ccccc5c(=O)[nH]4)C3)CC2)cn1 (single isomer, unassigned) [Compound 116a]
[1]; PARP2 probe displacement HTRF
  Kd: > 10 µM
[2]; probe displacement HTRF
  Selectivity: +++ (+++ indicate a value of at least 100)
[2]; [4]
  Kd: 0.01 to 0.1 µM
[3]; [5]
  IC50: 0.01 to 0.1 µM

## CCc1ccc(C2CCN(C3CCN(c4cnc(C(=O)NC5CC5)c(F)c4)CC3)C2)[nH]c1=O (single isomer, unassigned) [Compound 408b]
[1]; probe displacement HTRF
  Kd: 1 to 10 µM
[2]; probe displacement HTRF
  Selectivity: + (+ indicates a value of 10 to less than 50)
[2]; [6]
  Kd: 0.01 to 0.1 µM
[3]; [7]
  IC50: 0.01 to 0.1 µM

## O=c1[nH]c(C2CCN(C3CCN(c4ccc(C5=NCCN5)cc4)CC3)C2)nc2ccccc12 (racemic) [Compound 307rac]
[1]; probe displacement HTRF
  Kd: 0.1 to 1 µM
[2]; probe displacement HTRF
  Selectivity: − (− indicates a value of less than 10)
[2]; [6]
  Kd: 0.01 to 0.1 µM
[3]; [7]
  IC50: 0.01 to 0.1 µM

## CNC(=O)c1ccc(N2CCC(N3CCC(c4nc5c(F)ccc(F)c5c(=O)[nH]4)C3)CC2)cn1 (single isomer, unassigned) [Compound 182b]
[1]; PARP2 probe displacement HTRF
  Kd: 0.1 to 1 µM
[2]; probe displacement HTRF
  Selectivity: +++ (+++ indicate a value of at least 100)
[2]; [4]
  Kd: < 0.01 µM
[3]; [5]
  IC50: < 0.01 µM

## CNC(=O)c1ccc(N2CCC(N3CCC(c4ccc(C5CC5)c(=O)[nH]4)C3)CC2)cn1 (racemic) [Compound 141rac]
[1]; PARP2 probe displacement HTRF
  Kd: 1 to 10 µM
[2]; probe displacement HTRF
  Selectivity: +++ (+++ indicate a value of at least 100)
[2]; [4]
  Kd: < 0.01 µM
[3]; [5]
  IC50: < 0.01 µM

## CCc1ccc(C2CCN(C3CCN(c4cnc(C(=O)NC)cc4C)CC3)C2)[nH]c1=O (single isomer, unassigned) [Compound 217a]
[1]; PARP2 probe displacement HTRF
  Kd: > 10 µM
[2]; probe displacement HTRF
  Selectivity: − (− indicates a value of less than 10)
[2]; [4]
  Kd: 0.1 to 1 µM
[3]; [5]
  IC50: 0.1 to 1 µM

## CCc1cnc(C2CCCN(CC3CCN(c4ccc(C(=O)NC)nc4)CC3)C2)[nH]c1=O (racemic) [Compound 39rac]
[1]; PARP2 probe displacement HTRF
  Kd: > 10 µM
[2]; probe displacement HTRF
  Selectivity: + (+ indicates a value of 10 to less than 50)
[2]; [4]
  Kd: 0.1 to 1 µM
[3]; [5]
  IC50: 0.1 to 1 µM

## CNC(=O)c1ccc(N2CCC(CN3CCCC(c4nc5ccccc5c(=O)[nH]4)C3)CC2)cn1 (single isomer, unassigned) [Compound 9a]
[1]; PARP2 probe displacement HTRF
  Kd: 1 to 10 µM
[2]; probe displacement HTRF
  Selectivity: +++ (+++ indicate a value of at least 100)
[2]; [4]
  Kd: 0.01 to 0.1 µM
[3]; [5]
  IC50: 0.01 to 0.1 µM

## CNC(=O)c1ccc(N2CCC(N3CCC(c4cc5cnccc5c(=O)[nH]4)C3)CC2)cn1 (racemic) [Compound 204rac]
[1]; PARP2 probe displacement HTRF
  Kd: > 10 µM
[2]; probe displacement HTRF
  Selectivity: +++ (+++ indicate a value of at least 100)
[2]; [4]
  Kd: < 0.01 µM
[3]; [5]
  IC50: < 0.01 µM

## N#Cc1ccc(N2CCC(N3CCC(c4cc5cccc(F)c5c(=O)[nH]4)C3)CC2)c(F)c1 (single isomer, unassigned) [Compound 356b]
[1]; probe displacement HTRF
  Kd: 1 to 10 µM
[2]; probe displacement HTRF
  Selectivity: + (+ indicates a value of 10 to less than 50)
[2]; [6]
  Kd: 0.1 to 1 µM
[3]; [7]
  IC50: 0.1 to 1 µM

## CCc1ccc(C2CCN(C3CCN(c4ccc(C(=O)NCCF)nc4)CC3)C2)[nH]c1=O (single isomer, unassigned) [Compound 165a]
[1]; PARP2 probe displacement HTRF
  Kd: 0.1 to 1 µM
[2]; probe displacement HTRF
  Selectivity: +++ (+++ indicate a value of at least 100)
[2]; [4]
  Kd: < 0.01 µM
[3]; [5]
  IC50: < 0.01 µM

## CNC(=O)c1ccc(N2CCC(N3CCC(c4cc5ccccc5c(=O)[nH]4)C3)CC2)s1 (racemic) [Compound 319rac]
[1]; probe displacement HTRF
  Kd: 1 to 10 µM
[2]; probe displacement HTRF
  Selectivity: − (− indicates a value of less than 10)
[2]; [6]
  Kd: 1 to 10 µM
[3]; [7]
  IC50: 1 to 10 µM

## CNC(=O)c1ccc(N2CCC(N3CCC(c4ccc(CC(F)(F)F)c(=O)[nH]4)C3)CC2)cn1 (racemic) [Compound 243rac]
[1]; probe displacement HTRF
  Kd: > 10 µM
[2]; probe displacement HTRF
  Selectivity: ++ (++ indicates a value of 50 to less than 100)
[2]; [6]
  Kd: 0.01 to 0.1 µM
[3]; [7]
  IC50: 0.01 to 0.1 µM

## CNC(=O)c1ccc(N2CCC(N3CC4(c5nc6ccccc6c(=O)[nH]5)CC3(CO)C4)CC2)cn1 [Compound 284]
[1]; probe displacement HTRF
  Kd: > 10 µM
[2]; PARP1 HTRF, probe displacement HTRF
  Kd: < 0.01 µM
[2]; probe displacement HTRF
  Selectivity: +++ (+++ indicate a value of at least 100)
[3]; [7]
  IC50: < 0.01 µM

## CNC(=O)c1cc(Cl)c(N2CCC(N3CCC(c4cc5cccc(F)c5c(=O)[nH]4)C3)CC2)cn1 (racemic) [Compound 248rac]
[1]; probe displacement HTRF
  Kd: 0.1 to 1 µM
[2]; probe displacement HTRF
  Selectivity: +++ (+++ indicate a value of at least 100)
[2]; [6]
  Kd: < 0.01 µM
[3]; [7]
  IC50: < 0.01 µM
